Here are results for 20 compounds from patent US10519177B2, “Heterocyclic compounds and uses thereof” (Plexxikon Inc., priority 2013, dated 2019).

Structures are written as SMILES.

The target in one assay is BRD4-BD12 (1-477) (Homo sapiens (Human), UniProt O60885). In words: Alphascreen binding assay BRD4-BD12. The following applies: BRD4(1 2) H4; read-out: Biochemical activity (IC50 μM) BRD4(1 2) H4. As for the experimental part:
Binding of compounds of formula (I) with bromodomain 2, 3 4 was assessed using Alphascreen binding assay. The inhibition of the interaction between bromodomain and its acetylated target protein (Filippakopoulos P et al. 2012) was measured quantitatively using recombinant BRD proteins, an acetylated Histone 4 peptide and AlphaScreen™ technology. In absence of inhibition the BRD protein bound to AlphaScreen™ nickel chelate acceptor beads can interact with the acetylated Histone 4 peptide which is immobilized by the AlphaScreen™ Streptavidin coated beads. This interaction brings donor and acceptor beads in proximity. The close proximity allows the singlet oxygen produced by laser excitation of the donor beads to reach the acceptor beads and generate a luminescence signal.
Recombinant human bromodomains containing the N-terminal bromodomain (BRD2-BD1 (71-194), BRD3-BD1 (24-144) and BRD4-BD1 (44-164)) or dual bromodomains (BRD4-BD12 (1-477), BRD4-BD12 (1-472)) were prepared and purified as described in protein expression and purification session. The peptide is human Histone H41-21K5AcK8AcK12AcK16Ac-Biotin (Anaspec CA, USA).
Protocol for BRD2, BRD3 and BRD4 assay: All components are prepared in buffer composed of 50 mM HEPES pH 7.5, 100 mM NaCl, 0.01% bovine serum albumin (“BSA”), 0.01% Triton X-100, 2 mM dithiothreitol (“DTT”). 7 μL of Bromodomain protein and 7 μL of peptide are added to wells containing 1 μL of various concentrations of test compounds of formula (I) or DMSO vehicle in an Alphaplate (PerkinElmer GA, USA) and incubated for 1 hour at room temperature. 4 μL donor and acceptor bead mixture is then added with final concentrations of 7.5 μg/ml. 30 minutes after bead addition, Alpha signal is read on the Envision spectrometer (λEx 680 nm, λEm 520-620 nm). Final concentrations of bromodomain proteins and peptide are as shown below.
All data was normalized to the mean of 16 high and 16 low control wells on each plate. A four parameter curve fit of the following formula was then applied: Y=a+(b−a)/(1+(x/c)^d) Where ‘a’ is the minimum, ‘b’ is the maximum, ‘c’ is the pIC50 and ‘d’ is the Hill slope. Protein Expression and Purification
Recombinant human bromodomains containing the N-terminal bromodomain (BRD2-BD1 (71-194), BRD3-BD1 (24-144) and BRD4-BD1 (44-164)) or dual bromodomains (BRD4-BD12 (1-477), BRD4-BD12 (1-472)) were expressed in E. coli cells (in a modified pET vector) with an N-terminal six-His tag and purified using a combination of both IMAC (Ni-affinity) and size exclusion chromatography steps.
Recombinant BRD proteins were expressed using the E. coli strain BL21-CodonPlus (DE3) (Agilent Technologies CA, USA). Cells were grown in Terrific Broth (TB) media to an OD600 of 1.2 at 37° C. at which temperature was reduced to 25° C., protein was induced with 1.0 mM ispropyl-β-D-thiogalactopyranoside (“IPTG”) for 12-18 hours and harvested by centrifugation at 8000×g for 20 minutes. Cells were re-suspended in 0.1M K2PO4 pH 8.0, 250 mM NaCl, 10% Glycerol, 0.75% NP-40, 25 mM Imidazole, 5 mM beta-mercaptoethanol (“BME”) with 0.2 mg/ml Lysosyme, 2.0 mM phenylmethanesulfonyl fluoride (“PMSF”), 25 μg/ml DNAse I, incubated on ice for 30 minutes and lyzed with a cell disruptor (MicroFluidics MA, USA). The lysate was clarified by centrifugation at 20,000×g for 2 hours. The protein was captured with Ni-NTA resin (Life Technologies, USA). Contaminating proteins were washed off with 25 mM Tris-HCl pH 8.3, 250 mM NaCl, 12% Glycerol and 50 mM Imidazole. Following 3× wash steps, protein was eluted step wise using a 50 mM HEPES pH 7.5, 500 mM NaCl and 400 mM Imidazole. The protein was further purified using Gel Filtration column 26/600 Superdex 200 (GE Biosciences NJ, USA) in 50 mM HEPES pH 7.5, 250 mM NaCl. The protein was aliquoted and flash-frozen in liquid Nitrogen.

The next assay has as its system MV-4-11 cells. In words: Oncology cell growth assay MV-4-11 (CellTiter Glo). In kind it is cell-based. The following applies: Homo sapiens, MV4-11, 72 h; MV-4-11, 3d growth; read-out: Cell activity (IC50 μM) MV-4-11 3d-Growth. In a few lines:
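MV-4-11 AML cells (MLL-AF4), 3000 per well, exposed to 8-point 1:3 compound titration from 10 μM top concentration (0.2% DMSO) for 72 h. Viability by CellTiter Glo luminescence, normalized to DMSO controls; pIC50 from four-parameter curve fit.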

As to `Cc1noc(C)c1-c1cnc2c(-c3ccc(CC(=O)O)cc3)cn(C(c3ccccc3)c3ccccn3)c2c1` (stereo not shown) [P-0903, 2-[4-[6-(3,5-dimethylisoxazol-4-yl)-1-[phenyl(2-pyridyl)methyl]pyrrolo[3,2-b]pyridin-3-yl]phenyl]acetic acid], the IC50 on BRD4-BD12 (1-477) and with MV-4-11 cells was below 1 µM throughout.

As for `COC(=O)c1ccc(-c2cn(CC3CCCCC3)c3cc(-c4c(C)noc4C)cnc23)cc1OC` [P-0904, methyl 4-[1-(cyclohexylmethyl)-6-(3,5-dimethylisoxazol-4-yl)pyrrolo[3,2-b]pyridin-3-yl]-2-methoxy-benzoate], the IC50 at BRD4-BD12 (1-477) and in the assay on MV-4-11 cells was below 1 µM in each case.

Regarding `Cc1noc(C)c1-c1cnc2c(-c3ccc(C(C)(C)C#N)cc3)cn(CC3CCC(F)(F)CC3)c2c1` [P-0905, 2-[4-[1-[(4,4-difluorocyclohexyl)methyl]-6-(3,5-dimethylisoxazol-4-yl)pyrrolo[3,2-b]pyridin-3-yl]phenyl]-2-methyl-propanenitrile], the IC50 on BRD4-BD12 (1-477) and in the assay on MV-4-11 cells was below 1 µM in each case.

Regarding `Cc1noc(C)c1-c1cnc2c(I)cn(C(c3ccccc3)c3ccccn3)c2c1` (stereo not shown) [P-0906, 4-[3-iodo-1-[phenyl(2-pyridyl)methyl]pyrrolo[3,2-b]pyridin-6-yl]-3,5-dimethyl-isoxazole], the half-inhibitory concentration (IC50) on BRD4-BD12 (1-477) and with MV-4-11 cells was below 1 µM throughout.

Regarding `Cc1noc(C)c1-c1cnc2c(-c3ccc(C#N)nc3)cn(C(c3ccccc3)c3ccccn3)c2c1` (stereo not shown) [P-0907, 5-[6-(3,5-dimethylisoxazol-4-yl)-1-[phenyl(2-pyridyl)methyl]pyrrolo[3,2-b]pyridin-3-yl]pyridine-2-carbonitrile], the IC50 on BRD4-BD12 (1-477) and with MV-4-11 cells was below 1 µM throughout.

As for `[2H]C([2H])([2H])c1noc(C([2H])([2H])[2H])c1-c1cnc2c(-c3ccc(C(=O)O)cc3)cn(CC3CCC(F)(F)CC3)c2c1` [P-0908, 4-[6-[3,5-bis(trideuteriomethyl)isoxazol-4-yl]-1-[(4,4-difluorocyclohexyl)methyl]pyrrolo [3,2-b]pyridin-3-yl]benzoic acid], the IC50 on BRD4-BD12 (1-477) and with MV-4-11 cells was below 1 µM each time.

With `CCOCc1ccc(-c2cn(CC3CCC(F)(F)CC3)c3cc(-c4c(C)noc4C)cnc23)cc1` [P-0909, 4-[1-[(4,4-difluorocyclohexyl)methyl]-3-[4-(ethoxymethyl)phenyl]pyrrolo[3,2-b]pyridin-6-yl]-3,5-dimethyl-isoxazole], the IC50 on BRD4-BD12 (1-477) and in the assay on MV-4-11 cells was below 1 µM each time.

Turning to `Cc1noc(C)c1-c1cnc2c(-c3ccc(COC(C)(C)C)cc3)cn(CC3CCC(F)(F)CC3)c2c1` [P-0910, 4-[3-[4-(tert-butoxymethyl)phenyl]-1-[(4,4-difluorocyclohexyl)methyl]pyrrolo [3,2-b]pyridin-6-yl]-3,5-dimethyl-isoxazole], the IC50 on BRD4-BD12 (1-477) and with MV-4-11 cells was below 1 µM each time.

Regarding `Cc1noc(C)c1-c1cnc2c(-c3ccc(C4(N)CC4)cc3)cn(CC3CCC(F)(F)CC3)c2c1` [P-0911, 1-[4-[1-[(4,4-difluorocyclohexyl)methyl]-6-(3,5-dimethylisoxazol-4-yl)pyrrolo[3,2-b]pyridin-3-yl]phenyl]cyclopropanamine], the IC50 on BRD4-BD12 (1-477) and with MV-4-11 cells was below 1 µM each time.

Take `Cc1noc(C)c1-c1cnc2c(-c3ccc(C(=O)O)cc3)cn(CC3(C)CCCCC3)c2c1` [P-0912, 4-[6-(3,5-dimethylisoxazol-4-yl)-1-[(1-methylcyclohexyl)methyl]pyrrolo [3,2-b]pyridin-3-yl]benzoic acid]: the IC50 on BRD4-BD12 (1-477) and in the assay with MV-4-11 cells was below 1 µM in each case.

Take `Cc1noc(C)c1-c1cnc2ccn(C(c3ccccc3)c3ccccn3)c2c1` (stereo not shown) [P-0913, 3,5-dimethyl-4-[1-[phenyl(2-pyridyl)methyl]pyrrolo[3,2-b]pyridin-6-yl]isoxazole]: the IC50 on BRD4-BD12 (1-477) and with MV-4-11 cells was below 1 µM each time.

On to `COC(=O)c1ccc(-c2cn(CC3(C)CCCCC3)c3cc(-c4c(C)noc4C)cnc23)cc1` [P-0914, methyl 4-[6-(3,5-dimethylisoxazol-4-yl)-1-[(1-methylcyclohexyl)methyl]pyrrolo [3,2-b]pyridin-3-yl]benzoate], for which the values for the IC50 at BRD4-BD12 (1-477) and with MV-4-11 cells were below 1 µM and 1 to 10 µM, respectively.

As for `COC(=O)c1ccc(-c2cn(Cc3cccc(C)n3)c3cc(-c4c(C)noc4C)cnc23)cc1` [P-0915, methyl 4-[6-(3,5-dimethylisoxazol-4-yl)-1-[(6-methyl-2-pyridyl)methyl]pyrrolo[3,2-b]pyridin-3-yl]benzoate], the IC50 on BRD4-BD12 (1-477) and with MV-4-11 cells was below 1 µM throughout.

As for `Cc1cccc(Cn2cc(-c3ccc(C(=O)O)cc3)c3ncc(-c4c(C)noc4C)cc32)n1` [P-0916, 4-[6-(3,5-dimethylisoxazol-4-yl)-1-[(6-methyl-2-pyridyl)methyl]pyrrolo[3,2-b]pyridin-3-yl]benzoic acid], the IC50 on BRD4-BD12 (1-477) and with MV-4-11 cells was below 1 µM throughout.

As to `Cc1noc(C)c1-c1cnc2c(-c3ccc(C(=O)O)cc3)cn(Cc3ccc(F)cn3)c2c1` [P-0917, 4-[6-(3,5-dimethylisoxazol-4-yl)-1-[(5-fluoro-2-pyridyl)methyl]pyrrolo[3,2-b]pyridin-3-yl]benzoic acid], the IC50 at BRD4-BD12 (1-477) and in the assay with MV-4-11 cells was below 1 µM each time.

With `COC(=O)c1ccc(-c2cn(Cc3ccc(F)cn3)c3cc(-c4c(C)noc4C)cnc23)cc1` [P-0918, methyl 4-[6-(3,5-dimethylisoxazol-4-yl)-1-[(5-fluoro-2-pyridyl)methyl]pyrrolo[3,2-b]pyridin-3-yl]benzoate], the IC50 at BRD4-BD12 (1-477) and with MV-4-11 cells was below 1 µM throughout.

For the compound `COC(=O)c1ccc(-c2cn(Cc3ccccc3)c3cc(-c4c(C)noc4C)cnc23)cc1` [P-0919, methyl 4-[1-benzyl-6-(3,5-dimethylisoxazol-4-yl)pyrrolo[3,2-b]pyridin-3-yl]benzoate], the IC50 at BRD4-BD12 (1-477) and in the assay on MV-4-11 cells was below 1 µM each time.

`Cc1cccc(Cn2cc(I)c3ncc(-c4c(C)noc4C)cc32)n1` [P-0920, 4-[3-iodo-1-[(6-methyl-2-pyridyl)methyl]pyrrolo[3,2-b]pyridin-6-yl]-3,5-dimethyl-isoxazole]: the IC50 at BRD4-BD12 (1-477) and in the assay on MV-4-11 cells was below 1 µM throughout.

Turning to `COC(=O)c1ccc(-c2cn(Cc3ccccc3C#N)c3cc(-c4c(C)noc4C)cnc23)cc1` [P-0922, methyl 4-[1-[(2-cyanophenyl)methyl]-6-(3,5-dimethylisoxazol-4-yl)pyrrolo[3,2-b]pyridin-3-yl]benzoate], the IC50 on BRD4-BD12 (1-477) and in the assay on MV-4-11 cells was below 1 µM throughout.

Regarding `Cc1noc(C)c1-c1cnc2c(-c3ccc(C(=O)O)cc3)cn(Cc3ccccc3C#N)c2c1` [P-0923, 4-[1-[(2-cyanophenyl)methyl]-6-(3,5-dimethylisoxazol-4-yl)pyrrolo[3,2-b]pyridin-3-yl]benzoic acid], the IC50 at BRD4-BD12 (1-477) and in the assay on MV-4-11 cells was below 1 µM each time.
